US20050232912A1, “Enzyme phosphorylating ser46 of p53” (priority 2001, published 2005)

System: Human breast cancer cells MCF-7
Assay: Ser46-phosphorylating activity of nuclear extracts from doxorubicin-treated cells, Western blotting with anti-p53-phosphorylated-Ser46 antibodies
Type: cell-based
Conditions: MCF-7 cells, 3 μM doxorubicin, during 12 hours after treatment, substrate GST-p53
Description: Human breast cancer cells MCF-7 (hereinafter called “MCF-7”, ATCC) were cultured in DMEM medium (Sigma) containing 10% fetal bovine serum (GIBCO BRL) on 15 cm^2 dishes (Corning) up to 90% confluent state. These cells were treated with final 3 μM doxorubicin (Sigma, the same to adriamycin) by addition of its aqueous solution to the medium. After allowed to stand in an incubator, the cells were harvested at various time points.
The harvested cells from one dish were suspended and solubilized in 500 μl of cytoplasm extraction buffer (10 mM HEPES pH7.9, 2 mM MgCl2, 0.1 mM EDTA, 0.1 mM EGTA, 1% Nonidet NP-40, DTT 1 mM, Na3VO4 1 mM, NaF 5 mM, PMSF 0.5 mM, KCl 10 mM, leupeptin 5 μg/ml, antipain 5 μg/ml, chymostatin 5 μg/ml, pepstatinA 2 μg/ml). The solbilized cells were centrifuged at 15,000 rpm for 15 min. The pellets obtained were mixed with 100 μl nuclear extraction buffer (10 mM HEPES pH7.9, 2 mM MgCl2, 0.1 mM EDTA, 0.1 mM EGTA, 1% Nonidet NP-40, DTT 1 mM, Na3VO4 1 mM, NaF 5 mM, PMSF 0.5 mM, KCl 10 mM, NaCl 500 mM, leupeptin 5 μg/ml, antipain 5 μg/ml, chymostatin 5 μg/ml, pepstatinA 2 μg/ml), suspended well and centrifuged at 15,000 rpm for 15 min. […]
Next, the enzyme activity of the nuclear extracts was assayed using the antibodies. […] The phosphorylation of GST-p53 was detected in Western blotting probed with anti-p53-phosphorylated-Ser46 antibodies.

SMILES: COc1cccc2c1C(=O)c1c(O)c3c(c(O)c1C2=O)C[C@@](O)(C(=O)CO)C[C@@H]3O[C@H]1C[C@H](N)[C@H](O)[C@H](C)O1 [doxorubicin]
- activation of enzyme phosphorylating Ser46 of p53: greatly induced
